In the supplement of paper PMC10883282:
± gives the standard deviation of the averaged measurements.

Tested on: MES-SA
Experiment: relative viability vs DMSO control (72 h) (fraction); higher = more viable cells
Summary of the method: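 Sarcoma cell lines were grown in 384-well plates seeded toward 80–90% confluence and exposed 24 h later to serially diluted compound. After 72 h at 37 °C and 5% CO2, with 0.1% DMSO vehicle and a 5 µM positive control on the plates, ATPLite was read. Relative viability, given as percent growth averaged over up to triplicate wells, was rescaled so that 1 is full and 0 is none.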

Compound	relative viability (0.00017 µM)	relative viability (0.00051 µM)	relative viability (0.00152 µM)	relative viability (0.00457 µM)	relative viability (0.01372 µM)	relative viability (0.04115 µM)	relative viability (0.1235 µM)	relative viability (0.3704 µM)	relative viability (1.111 µM)	relative viability (3.333 µM)	relative viability (10 µM)
C=CC(=O)Nc1cccc(Oc2nc(Nc3ccc(N4CCN(C)CC4)cc3)nc3ccsc23)c1 [Olmutinib]	0.931 ± 0.038	0.964 ± 0.027	0.916 ± 0.037	0.937 ± 0.055	0.918 ± 0.036	0.955 ± 0.045	0.968 ± 0.035	0.954 ± 0.012	0.9273 ± 0.0055	0.751 ± 0.029	0.448 ± 0.025
COc1cc2c(Oc3ccc4[nH]c(C)cc4c3F)ncnc2cc1OCCCN1CCCC1 [Cediranib]	0.944 ± 0.036	0.934 ± 0.065	0.949 ± 0.041	0.929 ± 0.037	0.967 ± 0.012	0.95 ± 0.02	0.9503 ± 0.0085	0.966 ± 0.029	0.774 ± 0.037	0.619 ± 0.02	0.257 ± 0.023
Cc1cnc(Nc2ccc(OCCN3CCCC3)cc2)nc1Nc1cccc(S(=O)(=O)NC(C)(C)C)c1 [Fedratinib]	0.966 ± 0.046	0.959 ± 0.035	0.953 ± 0.026	0.937 ± 0.029	0.949 ± 0.025	0.907 ± 0.018	0.861 ± 0.018	0.679 ± 0.03	0.2659 ± 0.0019	0.18 ± 0.0027	0.028 ± 0.0026
CCCS(=O)(=O)Nc1ccc(F)c(C(=O)c2c[nH]c3ncc(-c4ccc(Cl)cc4)cc23)c1F [Vemurafenib]	0.941 ± 0.024	0.951 ± 0.025	0.957 ± 0.013	0.957 ± 0.026	0.955 ± 0.031	0.953 ± 0.018	0.967 ± 0.028	0.995 ± 0.022	0.9726 ± 0.0075	0.782 ± 0.02	0.51 ± 0.01
Cn1cnc2c(F)c(Nc3ccc(Br)cc3F)c(C(=O)NOCCO)cc21 [Binimetinib]	0.927 ± 0.027	0.9232 ± 0.0083	0.927 ± 0.017	0.894 ± 0.042	0.892 ± 0.024	0.84 ± 0.025	0.793 ± 0.02	0.7569 ± 0.0022	0.782 ± 0.025	0.741 ± 0.037	0.735 ± 0.059
COc1c(OCCCN2CCOCC2)ccc2c1N=C(NC(=O)c1cnc(N)nc1)N1CCN=C21 [Copanlisib]	0.966 ± 0.029	0.926 ± 0.031	0.9 ± 0.019	0.633 ± 0.029	0.502 ± 0.016	0.374 ± 0.0084	0.273 ± 0.0095	0.164 ± 0.0066	0.147 ± 0.0029	0.18 ± 0.0026	0.159 ± 0.0078
COc1cc2nccc(Oc3ccc(NC(=O)Nc4cc(C)on4)c(Cl)c3)c2cc1OC [Tivozanib]	0.914 ± 0.018	0.926 ± 0.051	0.925 ± 0.036	0.932 ± 0.035	0.94 ± 0.0096	0.944 ± 0.035	0.923 ± 0.013	0.955 ± 0.025	0.977 ± 0.021	0.697 ± 0.041	0.231 ± 0.0086
CC[C@H](Nc1ncnc2[nH]cnc12)c1nc2cccc(F)c2c(=O)n1-c1ccccc1 [Idelalisib]	1.01 ± 0.021	1 ± 0.034	0.993 ± 0.03	0.964 ± 0.015	0.971 ± 0.038	0.972 ± 0.036	0.986 ± 0.022	0.937 ± 0.016	0.889 ± 0.031	0.867 ± 0.029	0.711 ± 0.023
Cc1cc(C)c(/C=C2\C(=O)Nc3ccccc32)[nH]1 [Semaxanib]	0.908 ± 0.058	0.866 ± 0.02	0.866 ± 0.022	0.892 ± 0.027	0.882 ± 0.04	0.861 ± 0.061	0.871 ± 0.059	0.895 ± 0.035	0.889 ± 0.044	0.867 ± 0.041	0.798 ± 0.048
Cc1ccc(F)c(NC(=O)Nc2ccc(-c3cccc4[nH]nc(N)c34)cc2)c1 [Linifanib]	0.979 ± 0.013	0.968 ± 0.02	0.942 ± 0.014	0.956 ± 0.035	0.974 ± 0.01	0.971 ± 0.015	0.969 ± 0.011	0.918 ± 0.033	0.935 ± 0.01	0.75 ± 0.21	0.933 ± 0.014
COCc1c(-c2cc3cc(C)cc(OC)c3s2)c2c(N)ncnn2c1CN1CCNC(=O)C1 [Rogaratinib]	0.974 ± 0.012	0.9554 ± 0.0066	0.943 ± 0.014	0.929 ± 0.014	0.939 ± 0.025	0.949 ± 0.046	0.849 ± 0.018	0.732 ± 0.02	0.664 ± 0.035	0.565 ± 0.012	0.389 ± 0.019
N#CC[C@H](C1CCCC1)n1cc(-c2ncnc3[nH]ccc23)cn1 [Ruxolitinib]	1.02 ± 0.024	1.01 ± 0.024	0.997 ± 0.015	0.962 ± 0.058	0.992 ± 0.03	0.979 ± 0.058	0.957 ± 0.042	0.981 ± 0.02	0.84 ± 0.04	0.825 ± 0.042	0.679 ± 0.035
CCN1CCN(Cc2ccc(Nc3ncc(F)c(-c4cc(F)c5nc(C)n(C(C)C)c5c4)n3)nc2)CC1 [Abemaciclib]	0.883 ± 0.026	0.901 ± 0.035	0.878 ± 0.02	0.873 ± 0.031	0.876 ± 0.05	0.84 ± 0.046	0.736 ± 0.037	0.61 ± 0.031	0.435 ± 0.012	0.361 ± 0.0072	0.348 ± 0.023
CNC(=O)c1cc(Oc2ccc(NC(=O)Nc3ccc(Cl)c(C(F)(F)F)c3)c(F)c2)ccn1 [Regorafenib]	0.973 ± 0.026	0.9876 ± 0.0026	0.972 ± 0.037	0.955 ± 0.036	0.968 ± 0.022	0.96 ± 0.03	0.997 ± 0.067	0.965 ± 0.045	0.923 ± 0.064	0.735 ± 0.038	0.246 ± 0.01
Nc1cc(C(F)(F)F)c(-c2cc(N3CCOCC3)nc(N3CCOCC3)n2)cn1 [Buparlisib]	0.897 ± 0.012	0.902 ± 0.0092	0.895 ± 0.011	0.932 ± 0.022	0.907 ± 0.023	0.872 ± 0.022	0.811 ± 0.022	0.677 ± 0.025	0.208 ± 0.01	0.0825 ± 0.0014	0.037 ± 0.0019
CC(C)NC(=O)C1CCC(n2c(NC(=O)c3ccc(F)cc3)nc3ccc(CN4CCC(C(C)(C)O)CC4)cc32)CC1 (stereo not drawn) [Belizatinib]	0.942 ± 0.023	0.92 ± 0.026	0.934 ± 0.012	0.957 ± 0.023	0.932 ± 0.018	0.9451 ± 0.0052	0.9316 ± 0.0039	0.934 ± 0.037	0.824 ± 0.022	0.523 ± 0.024	0.148 ± 0.016
CC1(C)CNc2cc(NC(=O)c3cccnc3NCc3ccncc3)ccc21 [Motesanib]	0.93 ± 0.044	0.946 ± 0.034	0.962 ± 0.01	0.937 ± 0.023	0.949 ± 0.061	0.947 ± 0.047	0.961 ± 0.02	1 ± 0.044	0.96 ± 0.035	0.948 ± 0.013	0.849 ± 0.041
CC(=O)Nc1cccc(-n2c(=O)n(C3CC3)c(=O)c3c(Nc4ccc(I)cc4F)n(C)c(=O)c(C)c32)c1 [Trametinib]	0.968 ± 0.022	0.965 ± 0.012	0.929 ± 0.017	0.873 ± 0.029	0.831 ± 0.015	0.78 ± 0.011	0.76 ± 0.015	0.736 ± 0.034	0.683 ± 0.032	0.701 ± 0.017	0.6906 ± 0.006
